Measurements taken from patent US8828988B2 (Tetraphase Pharmaceuticals, Inc., priority 2009, dated 2014).
Values after ≈ are worked out from the molar mass of the structure shown. Like-named read-outs stand apart in the source and are kept apart here.

Experiments:
[1] = tested on: E. coli DH10B(pBAD-tetK), expressing tet(K); assay: MIC against recombinant E. coli expressing tet(K); format: cell-based; settings: for MIC: Escherichia coli
From the text: (§1) Constructs were transformed into E. coli DH10B for expression. Recombinant strains were pre-induced under optimized conditions with L-arabinose prior to use as inocula in CLSI standardized MIC assays.

[2] = tested on: Escherichia coli EC155, tetracycline-resistant, tet(A); assay: MIC assay, EC155; format: cell-based
[3] = tested on: Escherichia coli EC107, ATCC 25922; assay: MIC assay, EC107; format: cell-based
[4] = tested on: Staphylococcus aureus SA161, HA-MRSA, tetracycline-resistant, tet(M); assay: MIC assay, SA161; format: cell-based
[5] = tested on: Streptococcus pneumoniae SP160, tetracycline-resistant, tet(M); assay: MIC assay, SP160; format: cell-based
[6] = tested on: Staphylococcus aureus SA101, ATCC 29213, MSSA; assay: MIC assay, SA101; format: cell-based
[7] = tested on: Enterococcus faecalis EF103, ATCC 29212; assay: MIC assay, EF103; format: cell-based; settings: for MIC: Enterococcus faecalis, ATCC29212, Table 8, read-out: MIC E. faecalis ATCC 29212
[8] = tested on: Enterococcus faecalis EF159, tetracycline-resistant, tet(M); assay: MIC assay, EF159; format: cell-based
[9] = tested on: E. faecalis clinical isolates; assay: MIC50, MIC90 and MIC range, panel of clinical isolates (Example 20); format: cell-based; settings: 24 isolates, in µg/mL
Experimental: (§2) The assays were run as follows.
(§3) Both values, as well as the MIC range (the lowest and highest MIC value observed for a collection of organisms), were determined for the isolates listed in Table 3.

[10] = tested on: S. pneumoniae clinical isolates; assay: as above; format: cell-based; settings: 19 isolates, in µg/mL
Experimental: as §2, §3

[11] = tested on: S. aureus clinical isolates; assay: as above; format: cell-based; settings: MRSA, 30 isolates; in µg/mL
Experimental: as §2, §3

[12] = tested on: tet(M) strains of S. pneumoniae; assay: MIC, CLSI methodology, recent clinical isolates (Example 21); format: cell-based; settings: Streptococcus pneumoniae, read-out: MIC against tet(M) strains of S. pneumoniae
Experimental: as §2
(§4) The antibacterial activities of Compounds MIC values were determined according to CLSI methodology. Recent clinical isolates were obtained from Eurofins-Medinet. Antibiotics were obtained from standard commercial sources.

[13] = tested on: tet(M) and tet(S) strains of E. faecalis; assay: as above; format: cell-based; settings: Enterococcus faecalis, read-out: MIC against tet(M) and tet(S) strains of E. faecalis
Experimental: as §2, §4

[14] = tested on: tet(M) strains of S. aureus; assay: as above; format: cell-based; settings: Staphylococcus aureus, read-out: MIC against tet(M) strains of S. aureus
Experimental: as §2, §4

[15] = tested on: tet(K) strains of S. aureus; assay: as above; format: cell-based; settings: Staphylococcus aureus, read-out: MIC against tet(K) strains of S. aureus
Experimental: as §2, §4

[16] = tested on: E. coli S30 extract system, coupled in vitro transcription/translation, firefly luciferase readout; assay: In vitro transcription/translation (TnT) assay; format: biochemical; settings: for IC50, in vitro transcription/translation system: E. coli S30 extract, luciferase readout
[17] = tested on: E. coli DH10B(pBAD-tetM), expressing tet(M); assay: MIC against recombinant E. coli expressing tet(M); format: cell-based; settings: for MIC: Escherichia coli
From the text: as §1

[18] = tested on: Streptococcus pneumoniae SP106, ATCC 49619; assay: MIC assay, SP106; format: cell-based
[19] = tested on: Staphylococcus aureus SA158, tetracycline-resistant tet(K); assay: MIC assay, SA158; format: cell-based
[20] = Pharmacokinetic analysis in Sprague-Dawley rats
[21] = tested on: Klebsiella pneumoniae KP153, tetracycline-resistant, tet(A), MDR, ESBL+; assay: MIC assay, KP153; format: cell-based; settings: Table 9, read-out: MIC Klebsiella pneum KP153 (tet)A
[22] = in vivo; settings: Sprague-Dawley, rat
[23] = tested on: Klebsiella pneumoniae KP109, ATCC 13883; assay: MIC assay, KP109; format: cell-based; settings: ATCC13883, Table 9, read-out: MIC Klebsiella pneum ATCC 13883
[24] = tested on: Staphylococcus aureus SA100, ATCC 13709, MSSA, Smith strain; assay: MIC assay, SA100; format: cell-based
[25] = tested on: H. influenzae isolates (Eurofins-Medinet, recent clinical isolates); assay: MIC50 and MIC90 analysis (Example 22)
Experimental: (§5) Frozen bacterial strains were thawed and subcultured onto Mueller Hinton Broth (MHB) or other appropriate media (Streptococcus requires blood and Haemophilus requires hemin and NAD). Following incubation overnight, the strains were subcultured onto Mueller Hinton Agar and again incubated overnight. […] Isolated colonies were selected to prepare a starting inoculum equivalent to a 0.5 McFarland standard. […] Antibiotics (stored frozen, thawed and used within 3 hours of thawing) and compounds were further diluted to the desired working concentrations.
(§6) The assays were run as follows. Fifty μL of MHB was added to wells 2-12 of a 96-well plate. One hundred μL of appropriately diluted antibiotic or compound was added to well 1. Fifty μL of antibiotics or compound was removed from well 1 and added to well 2 and the contents of well 2 mixed by pipetting up and down five times. Fifty μL of the mixture in well 2 was removed and added to well 3 and mixed as above. Serial dilutions were continued in the same manner through well 12. Fifty μL was removed from well 12 so that all contained 50 μL. Fifty μL of the working inoculum was then added to all test wells. A growth control well was prepared by adding 50 μL of working inoculum and 50 μL of MHB to an empty well. The plates were then incubated at 37° C. overnight, removed from the incubator and each well was read on a plate reading mirror. The lowest concentration (MIC) of test compound that inhibited the growth of the bacteria was recorded.
(§7) MIC, MIC50 and MIC90 values were determined according to CLSI methodology. S. pneumoniae and H. influenzae isolates were obtained from Eurofins-Medinet and are recent clinical isolates. S. aureus strains were collected from various geographical sources.

[26] = tested on: S. pneumoniae isolates (Eurofins-Medinet, recent clinical isolates); assay: MIC50 and MIC90 analysis (Example 22)
Experimental: as §5, §6, §7

[27] = tested on: Enterobacter cloacae EC108, ATCC 13047; assay: MIC assay, EC108; format: cell-based; settings: ATCC13047, Table 9, read-out: MIC Enterobacter cloaceae ATCC 13047
[28] = tested on: S. aureus ATCC 13709 (Smith); assay: Mouse systemic infection model, S. aureus septicemia; settings: survival after 48 hours
[29] = tested on: Pseudomonas aeruginosa PA111, ATCC 27853; assay: MIC assay, PA111; format: cell-based; settings: ATCC27853, Table 9, read-out: MIC P. aeruginosa ATCC 27853
[30] = tested on: S. aureus strains collected from various geographical sources; assay: MIC50 and MIC90 analysis (Example 22)
Experimental: as §5, §6, §7

[31] = tested on: Acinetobacter baumannii AB110, ATCC 19606; assay: MIC assay, AB110; format: cell-based; settings: ATCC19606, Table 9, read-out: MIC A.baum AB110
[32] = tested on: E. coli ATCC 25922; assay: Mouse systemic infection model, E. coli septicemia; settings: survival after 48 hours
[33] = Table 8, read-out: MIC E. coli tetA
[34] = ATCC25922, Table 8, read-out: MIC E. coli ATCC 25922
[35] = Table 8, read-out: MIC S. aureus MRSA, tetM
[36] = Table 8, read-out: MIC S. pneumoniae tetM
[37] = Table 8, read-out: MIC S. aureus ATCC 29213
[38] = Table 8, read-out: MIC E. faecalis tetM
[39] = ATCC49619, Table 8, read-out: MIC S. pneumoniae ATCC 49619
[40] = Table 8, read-out: MIC S. aureus tetK
[41] = after IV dosing, single dose 1 mg/kg

CN(C)CC(C)(C)CNc1nc(F)c2c(c1O)C(=O)C1=C(O)[C@]3(O)C(=O)C(C(N)=O)=C(O)[C@@H](N(C)C)[C@@H]3C[C@@H]1C2 [Compound 133]
MIC ([1]; read-out: MIC, TetK Induced): 1 µg/mL | MIC ([1]; read-out: MIC, Uninduced): 2 µg/mL | MIC ratio, TetK induced to uninduced ([1]; ratio of TetK induced to uninduced MIC): 0.5 | Effect of expression of (tet)K on activity ([1]; result in words): unaffected | MIC [2, 33]: 8 µg/mL (≈ 14.2 µM) | MIC [3, 34]: 1 µg/mL (≈ 1.78 µM) | MIC [4, 35]: 2 µg/mL (≈ 3.56 µM) | MIC [5, 36]: 1 µg/mL (≈ 1.78 µM) | MIC [6, 37]: 1 µg/mL (≈ 1.78 µM) | MIC [7]: 0.5 µg/mL (≈ 0.89 µM) | MIC [8, 38]: 2 µg/mL (≈ 3.56 µM) | MIC Range [9]: 0.25-4 | MIC Range [10]: <=0.016-0.25 | MIC Range [11]: 0.5-8 | MIC [12]: ≤ 0.25 µg/mL | MIC [13]: ≤ 4 µg/mL | MIC [14]: ≤ 8 µg/mL | MIC [15]: ≤ 1 µg/mL | TnT IC50 [16]: 0.56 µg/mL | IC50, in vitro transcription/translation system [16]: 0.6 µg/mL (≈ 1.07 µM) | MIC ([17]; read-out: MIC, TetM induced): 2 µg/mL | MIC ([17]; read-out: MIC, Uninduced): 0.5 µg/mL | Ratio (TetM induced / Uninduced) ([17]; ratio of MICs): 4 | Effect of expression of (tet)M on activity ([17]; result in words): minimally affected | MIC [18, 39]: 0.5 µg/mL (≈ 0.89 µM) | MIC [19, 40]: 0.5 µg/mL (≈ 0.89 µM)

CN(C)c1ncc(O)c2c1C[C@H]1C[C@H]3[C@H](N(C)C)C(O)=C(C(N)=O)C(=O)[C@@]3(O)C(O)=C1C2=O [Compound 109]
Clobs ([20]; IV, single dose 1 mg/kg, mean): 15.311 mL/min/kg | Vzobs ([20]; IV, single dose 1 mg/kg, mean): 4.17697 L/kg | half-life ([20]; IV, single dose 1 mg/kg, mean): 3.14 h | AUC [20, 41]: 1087 ng·h/mL | Cl [20, 41]: 15.3 mL/min/kg | Vz [20, 41]: 4.177 L/kg | % F. ([20]; oral bioavailability, PO 10 mg/kg vs IV 1 mg/kg): 12.74% | MIC [21]: > 32 µg/mL | AUC(0-t) ([22]; iv, 1 mg/kg): 1090 ng·h/mL | Cmax ([22]; iv, 1 mg/kg): 603 ng/mL | Tmax ([22]; iv, 1 mg/kg): 0.08 h | half-life ([22]; iv, 1 mg/kg): 3 h | bioavailability ([22]; oral, 10 mg/kg): 13% | AUC(0-t) ([22]; po, 10 mg/kg): 1250 ng·h/mL | Cmax ([22]; po, 10 mg/kg): 192 ng/mL | Tmax ([22]; po, 10 mg/kg): 1.4 h | half-life ([22]; po, 10 mg/kg): 4.51 h | MIC [23]: 0.5 µg/mL (≈ 1.09 µM) | MIC ([24]; Table 9, read-out: MIC S. aureus ATCC 13709): 0.13 µg/mL (≈ 0.284 µM) | MIC ([24]; Table 12, read-out: MIC S. aureus ATCC 13709): 0.25 µg/mL (≈ 0.545 µM) | MIC [2, 33]: > 32 µg/mL | MIC ([2]; Table 9, read-out: MIC E. coli EC155 (tet)A): > 32 µg/mL | MIC [3, 34]: 0.13 µg/mL (≈ 0.284 µM) | MIC ([3]; ATCC25922, Table 9, read-out: MIC E. coli ATCC 25922): 0.13 µg/mL (≈ 0.284 µM) | MIC ([3]; ATCC25922, Table 12, read-out: MIC E. coli ATCC 25922): 0.13 µg/mL (≈ 0.284 µM) | MIC [4, 35]: 16 µg/mL (≈ 34.9 µM) | MIC ([4]; Table 9, read-out: MIC MRSA (tet)M SA161): 32 µg/mL (≈ 69.8 µM) | MIC [5, 36]: 8 µg/mL (≈ 17.4 µM) | MIC ([5]; Table 9, read-out: MIC S. pneum SP160 (tet)M): 8 µg/mL (≈ 17.4 µM) | MIC Range ([25]; H. influenzae (n = 12)): 0.063 to 4 µg/mL | MIC50 ([25]; Haemophilus influenzae): 0.5 µg/mL (≈ 1.09 µM) | MIC90 ([25]; Haemophilus influenzae): 2 µg/mL (≈ 4.36 µM) | MIC [6, 37]: 0.031 µg/mL (≈ 0.0676 µM) | MIC ([6]; Table 9, read-out: MIC S. aureus ATCC 29213): 0.03 µg/mL (≈ 0.0654 µM) | MIC [7]: 1 µg/mL (≈ 2.18 µM) | MIC E. faecalis ATCC 29212 ([7]; Table 9): 1 µg/mL (≈ 2.18 µM) | MIC Range ([26]; S. pneumoniae (n = 20)): ≦0.016-8 μg/ml | MIC50 ([26]; Streptococcus pneumoniae): 2 µg/mL (≈ 4.36 µM) | MIC90 ([26]; Streptococcus pneumoniae): 4 µg/mL (≈ 8.72 µM) | MIC [27]: 1 µg/mL (≈ 2.18 µM) | PD50 in the mouse septicemia model against S. aureus ([28]; CD-1 mice, IP infection, intravenous treatment one hour post-challenge): < 0.3 mg/kg | PD50 ([28]; mouse septicemia, S. aureus ATCC 13709, intravenous treatment one hour post-challenge): <0.30 mg/kg | MIC [8, 38]: 32 µg/mL (≈ 69.8 µM) | MIC ([8]; Table 9, read-out: MIC E. faecalis EF159 (tet)M): 32 µg/mL (≈ 69.8 µM) | MIC [29]: 8 µg/mL (≈ 17.4 µM) | MIC Range ([30]; S. aureus (n = 20)): ≦0.016-1 μg/ml | MIC50 ([30]; Staphylococcus aureus): ≤ 0.016 µg/mL | MIC90 ([30]; Staphylococcus aureus): ≤ 0.016 µg/mL | TnT IC50 [16]: 0.76 µg/mL | IC50, in vitro transcription/translation system [16]: sub-μg/ml | E. coli TnT ([16]; Table 8): 0.9 µg/mL | MIC [31]: 0.5 µg/mL (≈ 1.09 µM) | PD50 in the mouse septicemia model against E. coli ([32]; CD-1 mice, IP infection, treatment one hour post-challenge): 4.3 mg/kg | PD50 ([32]; mouse septicemia, E. coli ATCC 25922, treatment one hour post-challenge): 4.3 mg/kg | MIC [18, 39]: 0.031 µg/mL (≈ 0.0676 µM) | MIC ([18]; ATCC49619, Table 9, read-out: MIC S. pneum ATCC 49619): 0.03 µg/mL (≈ 0.0654 µM) | MIC [19, 40]: 2 µg/mL (≈ 4.36 µM) | MIC ([19]; Table 9, read-out: MIC S. aureus SA158 (tet)K): 1 µg/mL (≈ 2.18 µM)
